# Reference: patent publication US7871788B2, “Method of judging grade of malignancy of carcinoma cell using ATBF-1” (priority 2004, dated 2011)
# “Also recorded” adds a separate entry of the source.
# Key:
# [1] = test system: NB1 cultured cell line derived from human neuroblastoma; assay: Western blotting of ATBF1 protein (D1-120) with or without retinoic acid treatment, NB1; type: cell-based; conditions: NB1, after retinoic acid treatment 24 hours
# Description: In order to confirm the probability that the ATBF1 assumed in 10-2 is cut at some sites and it can function as each fraction of the cell, by using three kinds of cultured cells, that is, the cultured cell lines derived from human neuroblastoma, NB1 and GOTO; a mouse undifferentiated embryonic carcinoma cell line p19 and SDS-PAGE and western blotting using an anti-ATBF1 antibody (D1-120) were carried out. A control group and a nerve cell differentiation inducing group were examined, separately. As to the control group, cells of P19, NB1 and GOTO that have been cultured in a serum-containing culture solution were collected and examined. As to the nerve cell differentiation inducing group, retinoic acid treatment was carried out (P19: four days; NB1 and GOTO: 24 hours). However, a culture method of P19 cells is different from that of the other two cell lines. Firstly, in a state in which cells were allowed to float on a bacterial grade dish for four days, retinoic acid (concentration: […]) treatment was carried out, and then a serum-containing culture solution from which the retinoic acid had removed was prepared and transferred to a usual tissue culture dish. Then, culture was continued for three days. According to this method, P19 cells were differentiated and induced to neuron in which neurite was observed. […]
# P19 cells [2] = assay: Export of ATBF1 from nucleus to cytoplasm in P19 cells, CRM1 inhibitor added; type: cell-based, mouse
# Description: (§1) The present inventors harvested cells in an undifferentiated proliferation state, to which stimulation had not been particularly applied, when at the starting time of culturing P19 carcinoma cells, and carried out an immunohistochemical staining method (ATBF1 staining using D1-120) by the following procedures. The cells were cultured in a chamber slide and fixed in 4% paraformaldehyde that had been adjusted with PBS, followed by washing. A primary antibody solution obtained by dissolving an anti-ATBF1 antibody in 0.05M Tris buffer solution (pH 7.6, containing 1% solution of bovine serum albumin and sodium azide) so that the concentration of the solution became 5 μg/ml was dropped on a slice to cause reaction at 37° C. for about 30 minutes (primary antibody reaction). After sufficiently washing, a secondary antibody Alexa Fluor 594-conjugated goat anti-rabbit IgG (as shown in the below-mentioned Examples, when double staining with other monoclonal antibody is carried out, Alexa Fluor 488-conjugated goat anti-mouse IgG is used simultaneously. Both are products by Molecular Probes.) was allowed to act on a specimen to cause a reaction at room temperature for about one hour (secondary antibody reaction). After sufficiently washing, inclusion was carried, which was observed by using a fluorescence microscope (AX70; Olympus) or a confocal laser scanning microscope (LSM5; ZWISS).
# Recently, the fact that transport and export of various factors from the nucleus to the cytoplasm is adjusted with CRM1 (Exportin 1 or chromosome region maintenance 1) has been reported. ATBF1 is assumed to have a target sequence of CRM1, that is, nuclear exporting signals existing in three positions (portions starting from the 1267th, 2471th and 2504th positions in the amino acid sequence, respectively) (see FIG. 3b). […]
# P19 cells [3] = assay: Movement of ATBF1 from cytoplasm to nucleus in P19 cells, PI3K family antagonists added; type: cell-based, mouse; conditions: P19 cells attached to culture dish, after retinoic acid
# Description: as §1, with “After sufficiently washing, a secondary antibody Alexa Fluor 594-conjugated goat anti-rabbit IgG (as shown in the below-mentioned Examples, when double staining with other monoclonal antibody is carried out, Alexa Fluor 488-conjugated goat anti-mouse IgG is used simultaneously. Both are products by Molecular Probes.) was allowed to act on a specimen to cause a reaction at room temperature for about one hour (secondary antibody reaction).” left out, “ZWISS). […]” for “ZWISS).”
# From the fact about various factors relating to the cell cycle, which was investigated in the past, the movement of proteins between the nucleus and the cytoplasm is known to relate to phosphorylation of amino acid. In particular, it was determined that, for the movement to the nucleus, phosphorylation and dephosphorylation of nuclear localization signals were important. […]
# HT1376 = conditions: HT1376, p53 missense mutant, p21 frame shift mutation; cited from earlier work
# RT4 = conditions: cited from earlier work
# T24 = conditions: T24, p53 nonsense mutant; cited from earlier work
smiles,measurement,setting,value
CC1=C(/C=C/C(C)=C/C=C/C(C)=C/C(=O)O)C(C)(C)CCC1 [retinoic acid],size of ATBF1 protein mainly observed,[1],210 kDa
CCC(=C/[C@H](C)C/C=C/C(C)=C/[C@@H](C)C(=O)[C@@H](C)[C@H](O)[C@@H](C)C/C(C)=C/C(=O)O)/C=C/[C@@H]1OC(=O)C=C[C@@H]1C [Leptomycin B],number of cells undergoing apoptosis,P19 cells [2]; P19 cells after retinoic acid on coated dish,clearly increased
same,intranuclear concentration of ATBF1,"P19 cells [2]; P19 cells after retinoic acid on dish coated with fibronectin and poly-L-ornithine, versus no Leptomycin B",clearly increased
same,cell death,"P19 cells [2]; one more day of culture added, the following day",almost all the cells died
Cn1c(=O)c2c(ncn2C)n(C)c1=O [caffeine],movement of ATBF1 into the nucleus,P19 cells [3],inhibited in almost all of the cultured cells; also recorded: more completely inhibited
same,proliferation state of cells,P19 cells [3],completely maintained
N.N.[Cl][Pt][Cl] [cisplatin],induction of apoptosis,HT1376,cannot be induced
same,introduction of p21,"RT4; RT4, the only one of the three cell lines",can introduce p21
same,induction of apoptosis,"RT4; RT4, wild-type p21 and p53",can be induced
same,induction of apoptosis,T24,cannot be induced
